For data set [1] the following is noted: bacteroides fragilis, 12 h, 2 µM.
Description: The drug is tested on Bacteroides fragilis strain: 3397 (T10) for biotransformation. The drug concentrations were measured before and after a 12-h incubation by liquid-chromatography-coupled mass spectrometry (LC–MS)
Data set [2] in a line: The drug is tested on Bacteroides uniformis strain: ATCC8492 for biotransformation. The drug concentrations were measured before and after a 12-h incubation by liquid-chromatography-coupled mass spectrometry (LC–MS). The conditions noted are these: 2 µM.
The nature of data set [3]: The drug is tested on Bacteroides sp. WH2 strain: WH2 for biotransformation. The drug concentrations were measured before and after a 12-h incubation by liquid-chromatography-coupled mass spectrometry (LC–MS). The conditions noted are these: bacteroides sp. wh2, 12 h, 2 µM.
Data set [4] in a line: The drug is tested on Ruminococcus lactaris strain: ATCC29176 for biotransformation. The drug concentrations were measured before and after a 12-h incubation by liquid-chromatography-coupled mass spectrometry (LC–MS). The conditions noted are these: 2 µM.
The conditions of data set [5]: bifidobacterium adolescentis, 12 h, 2 µM.
Description: The drug is tested on Bifidobacterium adolescentis strain: ATCC 15703 for biotransformation. The drug concentrations were measured before and after a 12-h incubation by liquid-chromatography-coupled mass spectrometry (LC–MS)
Data set [6] can be described thus: The drug is tested on Eggerthella lenta strain: ATCC25559 for biotransformation. The drug concentrations were measured before and after a 12-h incubation by liquid-chromatography-coupled mass spectrometry (LC–MS). The conditions noted are these: 2 µM.
Data set [7] in a line: The drug is tested on Clostridium sporogenes strain: ATCC15579 for biotransformation. The drug concentrations were measured before and after a 12-h incubation by liquid-chromatography-coupled mass spectrometry (LC–MS). The conditions noted are these: 2 µM.
Data set [8] is described as follows: The drug is tested on Bacteroides fragilis strain: HMW610 for biotransformation. The drug concentrations were measured before and after a 12-h incubation by liquid-chromatography-coupled mass spectrometry (LC–MS). The conditions noted are these: 2 µM.
For data set [9] the following is noted: bacteroides eggerthii, 12 h, 2 µM.
Description: The drug is tested on Bacteroides eggerthii strain: DSM20697 for biotransformation. The drug concentrations were measured before and after a 12-h incubation by liquid-chromatography-coupled mass spectrometry (LC–MS)
A short description of data set [10]: The drug is tested on Odoribacter splanchnicus strain: fecal isolate for biotransformation. The drug concentrations were measured before and after a 12-h incubation by liquid-chromatography-coupled mass spectrometry (LC–MS). The conditions noted are these: 2 µM.
Data set [11] in a line: The drug is tested on Parabacteroides merdae strain: ATCC43184 for biotransformation. The drug concentrations were measured before and after a 12-h incubation by liquid-chromatography-coupled mass spectrometry (LC–MS). The conditions noted are these: 2 µM.
Data set [12] in a line: The drug is tested on Dorea formicigenerans strain: ATCC27755 for biotransformation. The drug concentrations were measured before and after a 12-h incubation by liquid-chromatography-coupled mass spectrometry (LC–MS). The conditions noted are these: 2 µM.
A short description of data set [13]: The drug is tested on Clostridium scindens strain: ATCC35704 for biotransformation. The drug concentrations were measured before and after a 12-h incubation by liquid-chromatography-coupled mass spectrometry (LC–MS). The conditions noted are these: 2 µM.
The conditions of data set [14]: segatella copri, 12 h, 2 µM.
Description: The drug is tested on Prevotella copri strain: DSM18205 for biotransformation. The drug concentrations were measured before and after a 12-h incubation by liquid-chromatography-coupled mass spectrometry (LC–MS)
Data set [15] is described as follows: The drug is tested on Clostridium sp. strain: fecal isolate for biotransformation. The drug concentrations were measured before and after a 12-h incubation by liquid-chromatography-coupled mass spectrometry (LC–MS). The conditions noted are these: 2 µM.
Data set [16] is described as follows: The drug is tested on Collinsella intestinalis strain: DSM13280 for biotransformation. The drug concentrations were measured before and after a 12-h incubation by liquid-chromatography-coupled mass spectrometry (LC–MS). The conditions noted are these: 2 µM.
The conditions of data set [17]: anaerostipes sp., 12 h, 2 µM.
Description: The drug is tested on Anaerostipes sp. strain: fecal isolate for biotransformation. The drug concentrations were measured before and after a 12-h incubation by liquid-chromatography-coupled mass spectrometry (LC–MS)
The conditions of data set [18]: bacteroides intestinalis, 12 h, 2 µM.
Description: The drug is tested on Bacteroides intestinalis strain: DSM17393 for biotransformation. The drug concentrations were measured before and after a 12-h incubation by liquid-chromatography-coupled mass spectrometry (LC–MS)
For data set [19] the following is noted: parabacteroides johnsonii, 12 h, 2 µM.
Description: The drug is tested on Parabacteroides johnsonii strain: DSM18315 for biotransformation. The drug concentrations were measured before and after a 12-h incubation by liquid-chromatography-coupled mass spectrometry (LC–MS)
Data set [20] in a line: The drug is tested on Bacteroides xylanisolvens strain: DSM18836 for biotransformation. The drug concentrations were measured before and after a 12-h incubation by liquid-chromatography-coupled mass spectrometry (LC–MS). The conditions noted are these: 2 µM.

Structures are written as SMILES.

As to `Cc1ccc(/C(=C\CN2CCCC2)c2ccccn2)cc1` [TRIPROLIDINE], the “Bacterial Biotransformation” value in data set [1], in [2], in data set [3], in [4], in data set [5] and in [6] was “Compound NOT metabolized” in each case. The “Bacterial Biotransformation” value in data set [7], in data set [8], in data set [9], in data set [10], in data set [11] and in [12] was “Compound NOT metabolized” each time. Besides, the “Bacterial Biotransformation” value in data set [13], in data set [14], in [15], in data set [16], in data set [17] and in data set [18] was “Compound NOT metabolized” in each case. Further, the “Bacterial Biotransformation” value in [19] and in [20] was “Compound NOT metabolized” in each case.
In the case of `CCCCC(=O)N(Cc1ccc(-c2ccccc2-c2nnn[nH]2)cc1)[C@H](C(=O)O)C(C)C`, the “Bacterial Biotransformation” value in data set [1] was “Compound NOT metabolized”; in [2] it was “Compound metabolized”; in data set [3], “Compound NOT metabolized”; in data set [4] it was “Compound NOT metabolized”; in data set [5], “Compound NOT metabolized”; in [6] it was “Compound NOT metabolized”. The “Bacterial Biotransformation” value in [7] is given as “Compound NOT metabolized”; in data set [8], “Compound metabolized”; in data set [9] it was “Compound NOT metabolized”; in data set [10], “Compound metabolized”; in data set [11], “Compound NOT metabolized”; in data set [12], “Compound NOT metabolized”. Also, the “Bacterial Biotransformation” value is reported as “Compound NOT metabolized” in data set [13]; “Compound NOT metabolized” in data set [14]; “Compound NOT metabolized” in data set [15]; “Compound NOT metabolized” in [16]; “Compound NOT metabolized” in data set [17]; “Compound metabolized” in [18]. The figures for the “Bacterial Biotransformation” value in [19] and in [20] were “Compound NOT metabolized” and “Compound metabolized”, respectively.
`CCc1nc(N)nc(N)c1-c1ccc(Cl)cc1` [PYRIMETHAMINE]: the “Bacterial Biotransformation” value in data set [1], in data set [2], in data set [3], in data set [4], in data set [5] and in data set [6] was “Compound NOT metabolized” throughout. In addition, the “Bacterial Biotransformation” value in data set [7], in data set [8], in [9], in data set [10], in data set [11] and in data set [12] was “Compound NOT metabolized” throughout. The “Bacterial Biotransformation” value in data set [13], in data set [14], in data set [15], in data set [16], in [17] and in [18] was “Compound NOT metabolized” in each case. Moreover, the “Bacterial Biotransformation” value in [19] and in [20] was “Compound NOT metabolized” in each case.
